Several values for one entry are separate records, joined by “and”; a condition that tells them apart may be missing. Equal values may be shown once.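 Grown in 96-well plates, cells were treated for 48 hours with each compound at five concentrations. Insufficient inhibition: endpoint recorded as highest concentration tested. TGI: total growth inhibition.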
Assays:
Assay in all cases: DTP human tumour cell line panel, 48 h
KM12 colon = test system: KM12 colon
SN12C renal = test system: SN12C renal
KM20L2 colon = test system: KM20L2 colon
LXFL 529 NSCLC = test system: LXFL 529 NSCLC
SNB-19 CNS = test system: SNB-19 CNS
ACHN renal = test system: ACHN renal
OVCAR-5 ovarian = test system: OVCAR-5 ovarian
U251 CNS = test system: U251 CNS
HOP-62 NSCLC = test system: HOP-62 NSCLC
TK-10 renal = test system: TK-10 renal

Structure (SMILES)	TGI (KM12 colon)	TGI (SN12C renal) [µM]	TGI (KM20L2 colon) [µM]	TGI (LXFL 529 NSCLC)	TGI (SNB-19 CNS) [µM]	TGI (ACHN renal)	TGI (OVCAR-5 ovarian) [µM]	TGI (U251 CNS) [µM]	TGI (HOP-62 NSCLC) [µM]	TGI (TK-10 renal) [µM]
Cc1ccccc1N1C(=O)/C(=C/c2ccc(N(CCC#N)CCC#N)cc2)N=C1c1cc([N+](=O)[O-])ccc1Cl	> 100 µM	> 100	> 100	> 100 µM	> 100	> 100 µM	> 100	> 100	> 100	–
CC1OC(n2cc(F)c(=O)[nH]c2=O)C=CC1O (stereo not drawn)	> 100 µM	> 100	> 100	> 100 µM	> 100	> 100 µM	> 100	> 100	> 100	> 100
O=S(O)CCCCSSCC(O)C(O)CSSCCCCS(=O)O (stereo not drawn)	36.4 µM and > 100 µM	> 100	> 100	22.5 µM and 30.5 µM	> 100	68.7 µM and 90 µM	> 100	> 100	> 100	> 100
CCOP(=O)(Cc1ccc(CP(=O)(OCC)OCC)n1C)OCC	> 100 µM	> 100	> 100	> 100 µM	> 100	> 100 µM	> 100	> 100	> 100	> 100
Cc1ccc(S(=O)(=O)NCC2CCCCC2=O)cc1 (stereo not drawn)	> 100 µM	> 100	> 100	> 100 µM	> 100	–	> 100	> 100	–	> 100
CCN(CC)CCOc1ccc(/C=C(\C#N)c2ccc(OCCN(CC)CC)cc2)cc1	23.2 µM	> 100	4.5	41.3 µM	> 92	> 58.8 µM	> 66	35.8	22.6	> 91.3
CC1=Nc2ccccc2C1C(Cc1ccccc1N)c1c(C)[nH]c2ccccc12 (stereo not drawn)	31.7 µM	33.6	28.2	32.2 µM	41.6	30.1 µM	31.6	32.4	27.9	30.8
COc1ccc(OC)c(NC(=O)C(=O)NNC(=O)c2sc(NNC(C)=O)nc2C)c1	> 100 µM	> 100	> 100	81.6 µM	> 100	96.1 µM	> 100	> 100	> 100	> 100
C=C(CCCCC)CN1CCCC1[C@@](C)(O)CC(=O)OCC (stereo partly drawn)	> 100 µM	> 100	> 100	> 100 µM	> 100	> 100 µM	> 100	> 100	> 100	> 100
CCCCN(CCCC)CC(C(=O)Nc1ccc([N+](=O)[O-])cc1[N+](=O)[O-])/C(C)=N\NC(=S)NN (stereo not drawn)	> 100 µM	–	> 100	> 100 µM	–	> 100 µM	> 100	> 100	> 100	> 100
COC(=O)C1=C(C)N(NC(=O)c2ccccc2)C(C)(O)C12CCOC2=O (stereo not drawn)	> 100 µM	> 100	> 100	> 100 µM	> 100	> 100 µM	> 100	> 100	> 100	> 100
O=C(O)CNc1cc(-c2ccccc2)nc(NCC(=O)O)n1	> 100 µM	> 100	> 100	> 100 µM	> 100	> 100 µM	> 100	> 100	> 100	> 100
COC(=O)C1=C(c2ccc3c(c2)OCO3)O[C@H](c2cc(OC)c(OC)c(OC)c2)[C@H]1COC(C)=O	50 µM	37.9	8.72	36.3 µM	–	> 100 µM	> 100	18.4	84.7	> 100
O=C1CN=C(C[N+](=O)[O-])c2ccccc21	> 100 µM	> 100	> 100	> 100 µM	> 100	> 100 µM	> 100	> 100	> 100	–

Reference: PubChem BioAssay (NCI)
